Results on 27 compounds are retold here after ChEMBL document CHEMBL1121588, “Studies on anticoccidial agents. 13. Synthesis and anticoccidial activity of nitropyridine-2- and -3-sulfonamides and derivatives” (1980).

The first assay has as its system Eimeria tenella. Put plainly: Anticoccidial activity against Eimeria tenella using amprolium resistant strain at a concentration of 0.00175% drug in feed. In kind it is functional.
For `NS(=O)(=O)c1cncc([N+](=O)[O-])c1`, the Activity was found to be 158.

The test system of the next assay is Eimeria tenella. The experiment in a line: Anticoccidial activity against Eimeria tenella using amprolium resistant strain at a concentration of 0.0035% drug in feed. In kind it is functional.
Compound `NS(=O)(=O)c1cncc([N+](=O)[O-])c1` had an Activity of 194.
On to `NC(=O)c1cncc([N+](=O)[O-])c1`, for which the Activity amounted to 158.

The test system of another assay is Eimeria tenella. The experiment in a line: Anticoccidial activity against Eimeria tenella using amprolium resistant strain at a concentration of 0.007% drug in feed. In kind it is functional.
In turn, `NS(=O)(=O)c1cncc([N+](=O)[O-])c1` yielded an Activity of 195.
In the case of `NC(=O)c1cncc([N+](=O)[O-])c1`, the Activity came out at 186.

The subject of another assay is Eimeria tenella. The experiment in a line: Anticoccidial activity against Eimeria tenella using amprolium resistant strain at a concentration of 0.015% drug in feed. In kind it is functional.
As to `CCCCN(CC)S(=O)(=O)c1cncc([N+](=O)[O-])c1`, the Activity came to 175.
Still for that read-out and setting: next, `CN(C)S(=O)(=O)c1cncc([N+](=O)[O-])c1`: 175.
The compound `CCOCCN(CC)S(=O)(=O)c1cncc([N+](=O)[O-])c1` registered an Activity of 178.
`CNS(=O)(=O)c1cncc([N+](=O)[O-])c1` had an Activity of 195.
`O=[N+]([O-])c1cncc(S(=O)(=O)NCc2ccccc2)c1`: the Activity came to 168.
On the same count and under the same terms, next, `CC(C)(C)C(=O)NS(=O)(=O)c1cncc([N+](=O)[O-])c1`: 122.
For `CCCCCCCC(=O)NS(=O)(=O)c1cncc([N+](=O)[O-])c1`, the Activity amounted to 187.
The same measure, in the same setting: for `NS(=O)(=O)c1ccc[n+]([O-])c1` the value was 160; for `O=[N+]([O-])c1cncc(S(=O)(=O)Nc2ccccc2)c1`, 86; for `NS(=O)(=O)c1ncccc1[N+](=O)[O-]`, 55.
`NS(=O)(=O)c1ccc([N+](=O)[O-])nc1`: the Activity was determined as 120.
`NS(=O)(=O)c1cccnc1[N+](=O)[O-]` returned an Activity of 144.
On the same count and under the same terms, for `NS(=O)(=O)c1cnccc1[N+](=O)[O-]` the value was 144; for `CCOCCNS(=O)(=O)c1cncc([N+](=O)[O-])c1`, 192; for `NS(=O)(=O)c1cncc([N+](=O)[O-])c1`, 194.
The same measure, in the same setting: next, `CCNS(=O)(=O)c1cncc([N+](=O)[O-])c1`: 190; `CCCCCCCCNS(=O)(=O)c1cncc([N+](=O)[O-])c1`: 126.
Consider `NC(=O)c1cncc([N+](=O)[O-])c1`, for which the Activity was 198.
On the same count and under the same terms, next, `CC(=O)NS(=O)(=O)c1cncc([N+](=O)[O-])c1`: 186; `NS(=O)(=O)c1cc[n+]([O-])cc1`: 120.
In turn, `NS(=O)(=O)c1cccc[n+]1[O-]` showed an Activity of 183.
Take `O=[N+]([O-])c1cncc(S(=O)(=O)NCCO)c1`: the Activity is listed as 120.
In turn, `NS(=O)(=O)c1ccc([N+](=O)[O-])cn1` came in with an Activity of 32.
On the same count and under the same terms, next, `NS(=O)(=O)c1cccc([N+](=O)[O-])n1`: 120; `NS(=O)(=O)c1cc([N+](=O)[O-])ccn1`: 107; `CC(C)OCCCNS(=O)(=O)c1cncc([N+](=O)[O-])c1`: 193.
The same measure, in the same setting: for `CCCc1ncc(C[n+]2ccccc2C)c(N)n1.[Cl-]` the value was 95.
